# Assay results: patent US6403082B1, “Bacteriocins, transport and vector system and method of use thereof” (priority 1996, dated 2002)
# Marks after values point to notes of the source that are not given here.
# Legend:
# Assay in all cases: Spot test of partially purified bacteriocins on strains grown on agar
# Streptococcus = test system: Streptococcus
# Lactobacillus = test system: Lactobacillus
# G negative strains = format: cell-based
# Enterococcus = test system: Enterococcus
# [1] = test system: Bacillus vegetative cells; format: cell-based
# Bacillus spores = format: cell-based
# Listeria = test system: Listeria
# Lactococcus = test system: Lactococcus
# Leuconostoc = test system: Leuconostoc
# Carnobacteria = test system: Carnobacteria
# Clostridia spores = format: cell-based, Clostridium
# Staphylococcus = test system: Staphylococcus
# [2] = test system: Clostridia vegetative cells; format: cell-based, Clostridium
# Brochothrix = test system: Brochothrix
# Pediococcus = test system: Pediococcus
# [3] = 8AU (10 μl/spot of 800 AU/ml), listed as Mesent Y105
# [4] = 1AU (10 μl/spot of 100 AU/ml), listed as Mesent Y105
substance,measurement,setting,value
Enterocin 900: broad spectrum bacteriocin of 71 amino acids (SEQ ID NO:30) produced by Enterococcus faecium 900 (MKKELLNKNEMSRIIGGKINWGNVGGSCVGGAVIGGALGGLGGAGGGCITGAIGSIWDQ; Brochocin-C peptide B;),Number of strains inhibited/Number of strains tested,Streptococcus; 1AU (10 μl/spot of 100 AU/ml),0/3
same,Number of strains inhibited/Number of strains tested,Streptococcus; 8AU (10 μl/spot of 800 AU/ml),0/3
same,Number of strains inhibited/Number of strains tested,Lactobacillus; 1AU (10 μl/spot of 100 AU/ml),2/17
same,Number of strains inhibited/Number of strains tested,Lactobacillus; 8AU (10 μl/spot of 800 AU/ml),5/17
same,Number of strains inhibited/Number of strains tested,G negative strains; 1AU (10 μl/spot of 100 AU/ml),0/29
same,Number of strains inhibited/Number of strains tested,G negative strains; 8AU (10 μl/spot of 800 AU/ml),0/29
same,Number of strains inhibited/Number of strains tested,Enterococcus; 1AU (10 μl/spot of 100 AU/ml),5/14
same,Number of strains inhibited/Number of strains tested,Enterococcus; 8AU (10 μl/spot of 800 AU/ml),8/14
same,Number of strains inhibited/Number of strains tested,[1]; 1AU (10 μl/spot of 100 AU/ml),0/5
same,Number of strains inhibited/Number of strains tested,[1]; 8AU (10 μl/spot of 800 AU/ml),2/5
same,Number of strains inhibited/Number of strains tested,Bacillus spores; 1AU (10 μl/spot of 100 AU/ml),0/5
same,Number of strains inhibited/Number of strains tested,Bacillus spores; 8AU (10 μl/spot of 800 AU/ml),0/5
same,Number of strains inhibited/Number of strains tested,Listeria; 1AU (10 μl/spot of 100 AU/ml),39/42
same,Number of strains inhibited/Number of strains tested,Listeria; 8AU (10 μl/spot of 800 AU/ml),39/42
same,Number of strains inhibited/Number of strains tested,Lactococcus; 1AU (10 μl/spot of 100 AU/ml),4/8
same,Number of strains inhibited/Number of strains tested,Lactococcus; 8AU (10 μl/spot of 800 AU/ml),4/8
same,Number of strains inhibited/Number of strains tested,Leuconostoc; 1AU (10 μl/spot of 100 AU/ml),1/9
same,Number of strains inhibited/Number of strains tested,Leuconostoc; 8AU (10 μl/spot of 800 AU/ml),1/9
same,Number of strains inhibited/Number of strains tested,Carnobacteria; 1AU (10 μl/spot of 100 AU/ml),1/19
same,Number of strains inhibited/Number of strains tested,Carnobacteria; 8AU (10 μl/spot of 800 AU/ml),7/19
same,Number of strains inhibited/Number of strains tested,Clostridia spores; 1AU (10 μl/spot of 100 AU/ml),0/7
same,Number of strains inhibited/Number of strains tested,Clostridia spores; 8AU (10 μl/spot of 800 AU/ml),0/7
same,Number of strains inhibited/Number of strains tested,Staphylococcus; 1AU (10 μl/spot of 100 AU/ml),1/7
same,Number of strains inhibited/Number of strains tested,Staphylococcus; 8AU (10 μl/spot of 800 AU/ml),1/7
same,Number of strains inhibited/Number of strains tested,[2]; 1AU (10 μl/spot of 100 AU/ml),2/8
same,Number of strains inhibited/Number of strains tested,[2]; 8AU (10 μl/spot of 800 AU/ml),3/8
same,Number of strains inhibited/Number of strains tested,Brochothrix; 1AU (10 μl/spot of 100 AU/ml),0/14
same,Number of strains inhibited/Number of strains tested,Brochothrix; 8AU (10 μl/spot of 800 AU/ml),0/14
same,Number of strains inhibited/Number of strains tested,Pediococcus; 1AU (10 μl/spot of 100 AU/ml),0/3
same,Number of strains inhibited/Number of strains tested,Pediococcus; 8AU (10 μl/spot of 800 AU/ml),0/3
"Mesen Y105: mesentericin Y105, an anti-Listeria bacteriocin from Leuconostoc mesenteroides (KYYGNGVHCTKSGCSVNWGEAASAGIHRLANGGNGFW; UniProt P38577 25-61, looked up)",Number of strains inhibited/Number of strains tested,Streptococcus; 1AU (10 μl/spot of 100 AU/ml),0/3
same,Number of strains inhibited/Number of strains tested,Streptococcus; 8AU (10 μl/spot of 800 AU/ml),3/3^g
same,Number of strains inhibited/Number of strains tested,Streptococcus; [3],3/3
same,Number of strains inhibited/Number of strains tested,Lactobacillus; 1AU (10 μl/spot of 100 AU/ml),1/17^m
same,Number of strains inhibited/Number of strains tested,Lactobacillus; [4],1/17
same,Number of strains inhibited/Number of strains tested,Lactobacillus; 8AU (10 μl/spot of 800 AU/ml),1/17^m
same,Number of strains inhibited/Number of strains tested,Lactobacillus; [3],2/17
same,Number of strains inhibited/Number of strains tested,G negative strains; 1AU (10 μl/spot of 100 AU/ml),0/29
same,Number of strains inhibited/Number of strains tested,G negative strains; 8AU (10 μl/spot of 800 AU/ml),0/29
same,Number of strains inhibited/Number of strains tested,Enterococcus; 1AU (10 μl/spot of 100 AU/ml),3/14^l
same,Number of strains inhibited/Number of strains tested,Enterococcus; [4],3/14
same,Number of strains inhibited/Number of strains tested,Enterococcus; 8AU (10 μl/spot of 800 AU/ml),9/14^l
same,Number of strains inhibited/Number of strains tested,Enterococcus; [3],9/14
same,Number of strains inhibited/Number of strains tested,[1]; 1AU (10 μl/spot of 100 AU/ml),3/5
same,Number of strains inhibited/Number of strains tested,[1]; 8AU (10 μl/spot of 800 AU/ml),5/5
same,Number of strains inhibited/Number of strains tested,Bacillus spores; 1AU (10 μl/spot of 100 AU/ml),5/5^b
same,Number of strains inhibited/Number of strains tested,Bacillus spores; [4],5/5
same,Number of strains inhibited/Number of strains tested,Bacillus spores; 8AU (10 μl/spot of 800 AU/ml),5/5^b
same,Number of strains inhibited/Number of strains tested,Bacillus spores; [3],5/5
same,Number of strains inhibited/Number of strains tested,Listeria; 1AU (10 μl/spot of 100 AU/ml),36/42^h
same,Number of strains inhibited/Number of strains tested,Listeria; [4],36/42
same,Number of strains inhibited/Number of strains tested,Listeria; 8AU (10 μl/spot of 800 AU/ml),42/42
same,Number of strains inhibited/Number of strains tested,Lactococcus; 1AU (10 μl/spot of 100 AU/ml),0/8
same,Number of strains inhibited/Number of strains tested,Lactococcus; 8AU (10 μl/spot of 800 AU/ml),1/8^n
same,Number of strains inhibited/Number of strains tested,Lactococcus; [3],1/8
same,Number of strains inhibited/Number of strains tested,Leuconostoc; 1AU (10 μl/spot of 100 AU/ml),5/9
same,Number of strains inhibited/Number of strains tested,Leuconostoc; 8AU (10 μl/spot of 800 AU/ml),6/9^o
same,Number of strains inhibited/Number of strains tested,Leuconostoc; [3],6/9
same,Number of strains inhibited/Number of strains tested,Carnobacteria; 1AU (10 μl/spot of 100 AU/ml),17/19^j
same,Number of strains inhibited/Number of strains tested,Carnobacteria; [4],17/19
same,Number of strains inhibited/Number of strains tested,Carnobacteria; 8AU (10 μl/spot of 800 AU/ml),19/19
same,Number of strains inhibited/Number of strains tested,Clostridia spores; 1AU (10 μl/spot of 100 AU/ml),0/7
same,Number of strains inhibited/Number of strains tested,Clostridia spores; 8AU (10 μl/spot of 800 AU/ml),0/7
same,Number of strains inhibited/Number of strains tested,Staphylococcus; 1AU (10 μl/spot of 100 AU/ml),1/7^cf
same,Number of strains inhibited/Number of strains tested,Staphylococcus; [4],1/7
same,Number of strains inhibited/Number of strains tested,Staphylococcus; 8AU (10 μl/spot of 800 AU/ml),7/7^cf
same,Number of strains inhibited/Number of strains tested,Staphylococcus; [3],7/7
same,Number of strains inhibited/Number of strains tested,[2]; 1AU (10 μl/spot of 100 AU/ml),0/8
same,Number of strains inhibited/Number of strains tested,[2]; 8AU (10 μl/spot of 800 AU/ml),1/8^d
same,Number of strains inhibited/Number of strains tested,[2]; [3],1/8
same,Number of strains inhibited/Number of strains tested,Brochothrix; 1AU (10 μl/spot of 100 AU/ml),0/14
same,Number of strains inhibited/Number of strains tested,Brochothrix; 8AU (10 μl/spot of 800 AU/ml),0/14
same,Number of strains inhibited/Number of strains tested,Pediococcus; 1AU (10 μl/spot of 100 AU/ml),0/3
same,Number of strains inhibited/Number of strains tested,Pediococcus; 8AU (10 μl/spot of 800 AU/ml),0/3
